In patent publication US20230167088A1, “1-PYRAZINYLPYRAZOLYL-3-OXYALKYL ACIDS AND THEIR DERIVATIVES, AND THEIR USE FOR CONTROL OF UNDESIRED PLANT GROWTH” (BAYER AKTIENGESELLSCHAFT, priority 2020, published 2023):

How the values were obtained:
AVEFA = experiment: Herbicidal post-emergence action 1a (greenhouse pots, visual rating); assay type: in vivo, Avena fatua; conditions: rated visually about 3 weeks after treatment, 100% = plants have died, 0% = like control plants
Outline: (§1)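 Visual scoring versus untreated plants (100% = plants dead, 0% = as control) followed roughly 3 weeks in the greenhouse after treatment. Plants grown in sandy loam pots had been sprayed on green parts at the one-leaf stage, 2–3 weeks post-sowing, with aqueous WP/EC preparations containing 0.5% additive, 600 l/ha, at 320 and/or 80 g/ha.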

ECHCG [1] = experiment: as above; assay type: in vivo, Echinochloa crus-galli; conditions: rated visually about 3 weeks after treatment, 100% = plants have died, 0% = like control plants
Outline: as §1

LOLRI = experiment: as above; assay type: in vivo, Lolium rigidum; conditions: rated visually about 3 weeks after treatment, 100% = plants have died, 0% = like control plants
Outline: as §1

ABUTH = experiment: as above; assay type: in vivo, Abutilon theophrasti; conditions: visual rating about 3 weeks after treatment
Outline: as §1

AMARE = experiment: as above; assay type: in vivo, Amaranthus retroflexus; conditions: visual rating about 3 weeks after treatment
Outline: as §1

MATIN [2] = experiment: as above; assay type: in vivo, Matricaria inodora; conditions: visual rating about 3 weeks after treatment
Outline: as §1

STEME = experiment: Herbicidal post-emergence action 1b (twin sowing, 1280 g/ha); assay type: in vivo, Stellaria media; conditions: dosage 1280 g/ha, visual rating about 3 weeks after treatment
Outline: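 Visual % activity vs untreated controls, ~3 wk after treatment (100% = dead, 0% = like control). Plants: one mono- plus one dicot weed species per pot, sandy loam, greenhouse; sprayed at one-leaf stage (2–3 wk post-sowing). Aqueous WP/EC, 0.5% additive, 600 L/ha water.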

POAAN = experiment: Herbicidal pre-emergence action 2b (doubly sown, 1280 g/ha); assay type: in vivo, Poa annua; conditions: doubly sown pots, dosage 1280 g/ha, visual scoring after about 3 weeks
Outline: (§2)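 Pre-emergence soil-surface spray (WP/EC formulation, 0.5% additive, 600 L/ha water) onto covered seeds in sandy loam, doubly sown per pot. Greenhouse ~3 wk; % effect scored visually against untreated pots.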

MATIN [3] = experiment: as above; assay type: in vivo, Matricaria inodora; conditions: doubly sown pots, dosage 1280 g/ha, visual scoring after about 3 weeks
Outline: as §2

harmful plants = experiment: Herbicidal pre-emergence action 2a, summary across species; assay type: in vivo; conditions: Tables B1 to B15 (320 g/ha and/or 80 g/ha)
Source text: a) Seeds of monocotyledonous and dicotyledonous weed plants and crop plants are placed in plastic or organic plant pots and covered with soil. The compounds of the invention, formulated in the form of wettable powders (WP) or as emulsion concentrates (EC), are then applied onto the surface of the covering soil as aqueous suspension or emulsion with addition of 0.5% additive at a water application rate of 600 1/ha (converted). After the treatment, the pots are placed in a greenhouse and kept under good growth conditions for the trial plants. After about 3 weeks, the effect of the preparations is scored visually in comparison with untreated controls as percentages. For example, 100% activity=the plants have died, 0% activity=like control plants.
Tables B1 to B15 below show the effects of selected compounds of the general formula (I) according to Tables 1 and 2 on various harmful plants and an application rate corresponding to 320 g/ha and/or 80 g/ha, which were obtained by the experimental procedure mentioned above.
For example, compound nos. I-07, I-08, I-11, I-12, I-13, I-16, I-17, I-20, I-36, I-37, I-39, I-45, I-46, I-48, I-52 and I-53 in the pre-emergence method have very good action (80% to 100% herbicidal activity) against harmful plants such as Alopecurus myosuroides, Amaranthus retroflexus, Digitaria sanguinalis, Lolium rigidum, Polygonum convolvulus, Setaria viridis, Veronica persica and Viola tricolor at an application rate of 0.32 kg of active substance per hectare.

ECHCG [4] = experiment: Herbicidal pre-emergence action 2a (greenhouse pots, visual scoring); assay type: in vivo, Echinochloa crus-galli; conditions: dosage 320 g/ha, visual scoring after about 3 weeks
Outline: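 Dose levels were 320 g/ha and/or 80 g/ha, delivered as an aqueous spray of wettable powder or emulsion concentrate plus 0.5% additive onto soil over sown seeds. Plants grew under good greenhouse conditions for about 3 weeks before visual percentage rating versus untreated pots.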

Structure (SMILES)	Post-emergence action against AVEFA in % (AVEFA; Dosage 80 g/ha) [%]	Post-emergence action against AVEFA in % (AVEFA; Dosage 320 g/ha) [%]	Post-emergence action against ECHCG in % (ECHCG [1]; Dosage 320 g/ha) [%]	Post-emergence action against LOLRI in % (LOLRI; Dosage 320 g/ha) [%]	Post-emergence action against ABUTH in % (ABUTH; dosage 320 g/ha) [%]	Post-emergence action against AMARE in % (AMARE; dosage 80 g/ha) [%]	Post-emergence action against AMARE in % (AMARE; dosage 320 g/ha) [%]	Post-emergence action against MATIN in % (MATIN [2]; dosage 320 g/ha) [%]	Post-emergence action at 1280 g/ha against STEME in % (STEME) [%]	Pre-emergence action at 1280 g/ha against POAAN in % (POAAN) [%]	Pre-emergence action at 1280 g/ha against MATIN in % (MATIN [3]) [%]	herbicidal efficacy against harmful plants in the case of pre-emergence treatment (in words) (harmful plants)	Post-emergence action against ECHCG in % (ECHCG [1]; Dosage 80 g/ha) [%]	Post-emergence action against LOLRI in % (LOLRI; Dosage 80 g/ha) [%]	Post-emergence action against ABUTH in % (ABUTH; dosage 80 g/ha) [%]	Post-emergence action against MATIN in % (MATIN [2]; dosage 80 g/ha) [%]	Pre-emergence action against ECHCG in % (ECHCG [4]) [%]
COC(=O)C(C)Oc1nn(-c2cnccn2)c(-c2ccc(F)nc2)c1Br (racemic) [Example I-12]	100	100	80	90	80	80	80	80	100	100	90	good herbicidal efficacy	–	–	–	–	–
COC(=O)COc1nn(-c2cnccn2)c(-c2cncc(F)c2)c1Br [Example I-07]	100	100	90	90	90	–	80	90	–	–	–	good herbicidal efficacy	80	80	80	90	100
COC(=O)[C@@H](C)Oc1nn(-c2cnccn2)c(-c2cncc(F)c2)c1C#N [Example I-40]	–	80	–	80	80	80	90	–	100	100	100	–	–	–	80	–	–
COC(=O)C(C)Oc1nn(-c2cnccn2)c(-c2cncc(F)c2)c1Br (racemic) [Example I-08]	100	100	90	90	90	–	80	90	–	–	–	good herbicidal efficacy	80	–	80	80	100
COC(=O)COc1nn(-c2cnccn2)c(-c2ccc(F)nc2)c1Br [Example I-11]	–	–	80	–	80	90	90	80	90	100	90	good herbicidal efficacy	–	–	–	–	–
COC(=O)C(C)Oc1nn(-c2cnccn2)c(-c2ccnc(F)c2)c1Cl (racemic) [Example I-05]	90	100	–	90	80	–	80	–	90	100	90	good herbicidal efficacy	–	–	–	–	90
COC(=O)COc1nn(-c2cnccn2)c(-c2ccc(F)c(F)c2)c1Br [Example I-15]	90	90	90	90	80	80	80	80	–	–	–	good herbicidal efficacy	–	90	80	–	100
COC(=O)[C@@H](C)Oc1nn(-c2cnccn2)c(-c2ccc(F)c(F)c2)c1Br [Example I-45]	–	80	80	90	80	–	90	80	100	100	100	good herbicidal efficacy	–	90	–	–	–
CCOC(=O)COc1nn(-c2cnccn2)c(-c2ccc(F)nc2)c1Br [Example I-52, ethyl {[4-bromo-5-(6-fluoropyridin-3-yl)-1-(pyrazin-2-yl)-1H-pyrazol-3-yl]oxy}acetate]	–	–	80	–	80	90	80	–	–	100	90	good herbicidal efficacy	–	–	–	–	–
COC(=O)C(C)Oc1nn(-c2cnccn2)c(-c2ccc(F)c(F)c2)c1C#N (racemic) [Example I-22]	100	100	–	100	–	90	90	80	100	100	90	good herbicidal efficacy	–	80	–	–	–
COC(=O)C(C)Oc1nn(-c2cnccn2)c(-c2ccc(F)c(F)c2)c1Br (racemic) [Example I-16]	90	100	90	90	80	–	90	80	100	100	100	good herbicidal efficacy	–	–	–	–	–
COC(=O)C(C)Oc1nn(-c2cnccn2)c(-c2ccnc(F)c2)c1Br (racemic) [Example I-10]	80	90	–	90	–	–	80	–	90	100	90	–	–	–	–	–	–
